Source: a melting point compilation (Tetko et al.; mined from patent text by program, amines drawn as free bases though some values may be those of a salt)

Row | SMILES | melting point
1 | CCCOc1ccc(S(=O)(=O)N2CCN(CCOC(=O)CCC)CC2)cc1-c1nc2c(CCC)cn(CC)c2c(=O)[nH]1 | 71.5 to 73 °C
2 | CCCc1noc(-c2ncn3c2[C@@H]2CCCN2C(=O)c2c(Cl)cccc2-3)n1 | 176 to 178 °C
3 | Cc1ccc2c(Cc3nc4c(F)c(F)cc(F)c4s3)cn(CC(=O)O)c2c1 | 211 to 213 °C
4 | C[C@]1(CN2CCN(C(=O)OCc3ccc(OC(F)(F)F)cc3)CC2)Cn2cc([N+](=O)[O-])nc2O1 | 140 °C
5 | COc1c(C=O)c(=O)n(C)c(=O)n1C | 105 to 107 °C
6 | CCCCCCCCCCCCCCCCCCCCC(=S)NCCCN(CC)CC | 61 °C
7 | CCOC(=O)/C(C#N)=C/c1c(OC)cccc1OC | 99 to 101 °C
8 | COc1cc(Nc2ncnc3cc4cc(OCc5ccccc5)c(OC)cc4cc23)c(Cl)cc1Cl | 275 to 280 °C
9 | O=c1[nH]c2cc(Cl)c(Cl)cc2n1CCCN1CCN(C(c2ccccc2)c2ccccc2)CC1 | 214 °C
10 | Cc1cc(-c2ccc(C(F)(F)F)cc2)cc(-c2ccnc(-c3ccc(S(N)(=O)=O)s3)n2)n1 | > 250 °C
11 | Cc1scc2c1C(=O)Nc1ccccc1N2C(=O)Cl | 235 to 236 °C
12 | COCCOC(=O)C1=C(C)Nc2nccn2C1c1ccccc1C(F)(F)F (stereo not given) | 181 to 182 °C
13 | COc1ccc2c(c1OC)CC(c1ccccc1)CC2(O)CN (stereo not given) | 175 to 176 °C
14 | c1cncc(-c2cnc3ccccc3c2)c1 | 117 to 119 °C
15 | FC(F)(F)c1cc(Cl)c(-c2nc(C(F)(F)F)c(Br)[nH]2)c(Cl)c1 | 295 °C
16 | COc1cccc(Nc2nc(OCC3CCCCC3)c3[nH]cnc3n2)c1 | 186 to 189 °C
17 | CC(C)(C)NC(=O)Nc1ccc(-c2c[nH]c(=O)cn2)cc1 | > 300 °C
18 | COc1ccc(C2COC(c3c(F)cccc3Cl)=N2)cc1-c1ccccc1 (stereo not given) | 80.5 to 82 °C
19 | NS(=O)(=O)Oc1ccc(I)cc1 | 146 to 147 °C
20 | CCN1C(=O)C(C(=O)Nc2cccc(C(=O)Nc3ccc(I)cc3)c2)c2cc(C(C)=O)ccc21 (stereo not given) | 205 to 210 °C

Row | SMILES | melting point
21 | CCOC(=O)COc1ccc(C=NCCN=Cc2ccc(OCC(=O)OCC)cc2O)c(O)c1 | 104 to 106 °C
22 | COc1nc(C)nc(NC(=O)NS(=O)(=O)c2ccccc2OC(F)F)n1 | 140 to 141 °C
23 | Cc1ccc2c(c1)C(C=O)c1ccccc1C2C=O (stereo not given) | 125 to 126 °C
24 | COC(=O)C1(c2ccccc2)CCN(CCNC(=O)N2C(=O)COCC2c2ccc(F)c(F)c2)CC1 (stereo not given) | 113 to 117 °C
25 | CN(O)C(=O)Cc1ccccc1Nc1c(Cl)cccc1Cl | 135 to 138 °C
26 | COC(=O)c1cc(-n2c(-c3ccccc3)cc3c2CCc2ccccc2-3)ccc1O | 164 to 166 °C
27 | CN(CCCN)CC(O)C(O)C(O)C(O)CO (stereo not given) | 106 °C
28 | O=c1[nH]c2cccc3c2n1CCC(NCCO)C3O (stereo not given) | 220 °C
29 | COCCn1cc(C(=O)O)c2c(C(=O)N3CCOCC3)cccc21 | 201 to 203 °C
30 | CCCCCCCC[C@H]1CC[C@H](C(=O)O)CC1 | 36 to 37 °C
31 | Cn1c(COc2ccc(CC3SC(=O)NC3=O)cc2)cc2cccnc21 (stereo not given) | 183 to 185 °C
32 | FC(F)(F)c1ccc2c(c1)C(c1ccccc1)=NCc1nncn1-2 | 258 to 260 °C
33 | O=C1NC(=C2CCCC2)Sc2ccccc21 | 190 to 191 °C
34 | Cc1nnsc1C(=O)Nc1ccc(-n2nc(-c3cccnc3)cc2C#N)cc1 | 215 to 218 °C
35 | OCC1OC(n2cnc3c(Nc4ccccc4)ccnc32)C(O)C1O (stereo not given) | 189 °C
36 | Cc1cc(C2C(=O)Oc3c2cc(C(C)(C)C)cc3C(C)(C)C)cc(C)c1OC(=O)C(C)(C)C (stereo not given) | 140 to 142 °C
37 | CCCc1nn(C)c2c(=O)[nH]cnc12 | 199 to 200 °C
38 | O=C1CCc2cc(Cl)cc(Cl)c21 | 119 to 120 °C
39 | CC(=O)c1cn(Cc2ccc(F)cc2)c2ccccc2c1=O | 185 to 187 °C
40 | Oc1ccc2oc3ccccc3c2c1Cn1c(=S)sc2ccccc21 | 174 to 180 °C
